Measurements reported in US6855338B2, “Anti-tumor therapies comprising a combination of a cartilage extract and an anti-neoplastic agent providing high efficacy and low toxic side effects” (priority 1997, dated 2005).

What was measured:
LLC lung metastasis = test: Lewis lung carcinoma model (LLC), number of lung metastases; type: in vivo, C57B1/6 mice; details: for Percent reduction from control (lung metastases): first experiment
Description: We have verified the anti-tumor efficacy and the protective effect of cartilage extract by testing a combination of diverse concentrations of cartilage liquid extract alone and in combination with cisplatin (CDDP), in the Lewis lung carcinoma model (LLC). LLC cells were resuspended in sterile PBS (10^6 cells/0.2 ml) and implanted in C57B1/6 mice. After a period of 11 days, primary tumors reached an average volume of 1.0 cm^3 and were surgically resected. After surgery, mice were randomized into groups of 15 animals and control article (saline) and cartilage extract were administered on a daily basis via oral gavage at the dose levels indicated for a period of 15 days. At day 16-post-surgery, animals were sacrificed, the lungs fixed in 10% […] and the number of lung metastases counted. Animals were always kept under controlled environment: temperature 22° C., humidity 40% to 50%, light/dark cycle: 12 hours. They were fed and given water ad libitum. In a first experiment, five injections of CDDP were given intraperitoneally every three days (1, 2 and 3 mg/Kg). Cartilage extract was given per as daily (31, 125 and 500 mg/Kg). Saline was given as a control. In a second independent experiment, CDDP was given at a dose of 4 mg/kg. Cartilage extract was given at doses 75, 150 and 500 mg/kg. Saline was given again as a control. Administration of CDDP alone reduced the number of metastases by about 71%.

[1] = Toxic side effects by body weights of LLC mice; type: in vivo, C57B1/6 mice; details: CDDP alone 4 mg/kg; after fifteen days from inoculation
Description: LLC cells were resuspended in sterile PBS (10^6 cells/0.2 ml) and implanted in C57B1/6 mice. After a period of 11 days, primary tumors reached an average volume of 1.0 cm^3 and were surgically resected. After surgery, mice were randomized into groups of 15 animals and control article (saline) and cartilage extract were administered on a daily basis via oral gavage at the dose levels indicated for a period of 15 days. At day 16-post-surgery, animals were sacrificed, the lungs fixed in 10% […] and the number of lung metastases counted. Animals were always kept under controlled environment: temperature 22° C., humidity 40% to 50%, light/dark cycle: 12 hours. They were fed and given water ad libitum. The toxic side effects were evaluated by measuring the body weights. The results are illustrated in FIG. 2. During the first week of treatment, the body weights increased in all groups. Treatment started on Day 12 of the protocol. The decrease in body weight observed between the second and the third time point of the graph results from the surgery (on day 11) necessary to remove the primary LLC tumor mass. After fifteen days from inoculation, it was observed that CDDP alone was very toxic since a decrease of about 16% of body weight occurred in comparison to the non-treated group.

[2] = system: peripheral white blood cells; test: Number of peripheral white blood cells in normal mice; type: in vivo; details: for Number of white blood cells: day 15
Description: Toxicity was evaluated in cancerous animals by the body weight decrease. We further characterized the nature of the protective effect provided by the cartilage extract by assessing an hematology parameter namely the number of peripheral white blood cells. Normal mice were injected (l.P.) with CDDP (3 and 4 mg/kg) on days 1, 4, 7, 10 and 13 of the experimental protocol. The cartilage extract was administered, orally, at doses of 75, 150 and 500 mg/kg/day. Animals were sacrificed on day 15 and blood samples were collected for cell count using an automated blood cell analyzer. Groups consisted of animals receiving CDDP alone, the cartilage extract alone, both in combination or saline as negative control. […] Values obtained from individual groups that have received cartilage extract were pooled to increase statistical power. Mean white blood cell counts were plotted according to treatment group regimen (FIG. 3). A linear trend indicated a clear monotonic trend (r^2=0.9126) for as decrease in cell counts according to treatment regimen stringency. This observation is in agreement with a protective effect of the cartilage extract relative to the peripheral white blood cell population reduced during CDDP administration.

With `[NH2][Pt]([NH2])([Cl])[Cl]` [CDDP, cisplatin] the “Percent reduction from control (lung metastases)” value (“Percent reduction from control” below) (LLC lung metastasis; CDDP 1 mg/kg i.p., alone) was 19%, the “Percent reduction from control” value (LLC lung metastasis; CDDP 2 mg/kg i.p., alone) was 35% and the “Percent reduction from control” value (LLC lung metastasis; CDDP 3 mg/kg i.p. every three days x5, alone) was 54%. The “reduction of the number of metastases” value (LLC lung metastasis; CDDP alone 4 mg/kg, second independent experiment) was “about 71%”, the decrease in metastases (LLC lung metastasis; CDDP alone at 5 mg/kg (data not shown), stated equivalent to the 500 mg/kg/day + 3 mg combination) was roughly 85% and the “decrease of body weight in comparison to the non-treated group” value [1] was “about 16%”. The “Number of white blood cells” value ([2]; CDDP 3 mg/kg i.p. days 1, 4, 7, 10, 13) was 3.4e+09 L⁻¹, the “Number of white blood cells” value ([2]; CDDP 4 mg/kg i.p. days 1, 4, 7, 10, 13) was 3.3e+09 L⁻¹ and the “effect on number of white blood cells” value ([2]; CDDP 3 and 4 mg/kg alone) was “significant decrease of the number of white blood cells”.
